Experimental data reported in US20090203577A1 (EXELIXIS, INC., priority 2005, published 2009).
pEC50: −log10 of the molar value. Converted amounts (≈) assume the structure as drawn.

Legend:
physchem = settings: pH 7.4, aqueous buffer, kinetic from dmso stock
Experimental: The kinetic solubility of test compounds in buffer was evaluated using a 96 well filtration plate format. A 500 μM assay solution in PBS, pH7.4 (or other assay buffer, as needed) was generated form a DMSO stock solution (up to 10 mM). Samples were transferred to a 96 Millipore MultiScreen HTS 96-well Filter plate (Cat# MSSLBPC10) mixed by shaking for 1.5 hours and processed by filtration prior to quantitation by HPLC-UV. Amiodarone and testosterone were used as reference controls.

[1] = target: T1, human farnesoid X receptor (Homo sapiens, UniProt Q96RI1); assay: FXR in vitro assays (farnesoid X receptor/ECREx7 co-transfection assay, TR-FRET assay), Table I; assay type: cell-based; settings: for pEC50: agonist activity, one or more of the in vitro assays, read-out: EC50; for Emax: read-out: % Efficacy
T1 construct: CMX-farnesoid X receptor (full length human farnesoid X receptor); expressed in transfected cells; host or cells: CV-1 African Green Monkey Kidney cells
T1 sequence (Q96RI1 1-472 isoform Q96RI1-2): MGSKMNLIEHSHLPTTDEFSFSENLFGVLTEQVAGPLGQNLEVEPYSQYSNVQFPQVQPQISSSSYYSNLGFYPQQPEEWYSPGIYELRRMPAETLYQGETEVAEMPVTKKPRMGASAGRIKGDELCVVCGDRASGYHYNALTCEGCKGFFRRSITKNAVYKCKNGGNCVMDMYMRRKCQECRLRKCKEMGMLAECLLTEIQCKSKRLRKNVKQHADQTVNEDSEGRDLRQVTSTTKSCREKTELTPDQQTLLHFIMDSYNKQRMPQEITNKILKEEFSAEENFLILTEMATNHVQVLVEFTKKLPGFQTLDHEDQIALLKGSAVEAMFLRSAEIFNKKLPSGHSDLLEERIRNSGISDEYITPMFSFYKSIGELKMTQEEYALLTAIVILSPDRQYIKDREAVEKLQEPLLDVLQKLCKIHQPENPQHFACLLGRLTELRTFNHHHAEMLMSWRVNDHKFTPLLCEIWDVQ
T1 sequence (P19793 1-462 partner): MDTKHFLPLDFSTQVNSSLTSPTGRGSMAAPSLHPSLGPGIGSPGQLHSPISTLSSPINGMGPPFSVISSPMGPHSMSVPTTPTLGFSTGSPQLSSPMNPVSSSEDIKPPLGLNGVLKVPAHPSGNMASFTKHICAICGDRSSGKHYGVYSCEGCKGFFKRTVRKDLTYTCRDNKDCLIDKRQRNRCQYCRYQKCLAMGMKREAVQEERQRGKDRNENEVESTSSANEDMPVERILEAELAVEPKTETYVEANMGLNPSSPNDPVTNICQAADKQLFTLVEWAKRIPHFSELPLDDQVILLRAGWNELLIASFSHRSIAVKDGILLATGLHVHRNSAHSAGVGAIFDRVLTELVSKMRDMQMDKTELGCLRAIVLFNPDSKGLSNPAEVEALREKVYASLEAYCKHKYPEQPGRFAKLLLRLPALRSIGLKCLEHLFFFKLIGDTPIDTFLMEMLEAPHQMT
Procedure, shortened: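 CV-1 monkey kidney cells transfected for an FXR/ECREx7 luciferase co-transfection reporter; luciferase read 18-20 h later in lysates. 8-point dose-response at ½-log spacing, 4 wells per point; EC50/IC50 from four-parameter Hill fit, averaged over at least 3 independent experiments.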

| Structure (SMILES) | solubility kinetic at 1.5 h (physchem) | pEC50 [1] | Emax [1] |
| --- | --- | --- | --- |
| CCN1CCN(C(=O)N2C=C(C(=O)OC(C)C)c3[nH]c4ccccc4c3C(C)(C)C2)CC1 [Example 25, 1-methylethyl 3-[(4-ethylpiperazin-1-yl)carbonyl]-1,1-dimethyl-1,2,3,6-tetrahydroazepino[4,5-b]indole-5-carboxylate] | > 10 µM | 7.00 to 8.00 | > 100% |
| CC(C)OC(=O)C1=CN(C(=O)N2CCNCC2)CC(C)(C)c2c1[nH]c1ccccc21 [Example 26, 1-methylethyl 1,1-dimethyl-3-(piperazin-1-ylcarbonyl)-1,2,3,6-tetrahydroazepino [4,5-b]indole-5-carboxylate] | > 10 µM | 5.00 to 6.00 | > 100% |
| CC(C)OC(=O)C1=CN(C(=O)N2CCC(N3CCCC3)CC2)CC(C)(C)c2c1[nH]c1ccccc21 [Example 28, 1-methylethyl 1,1-dimethyl-3[(4-pyrrolidin-1-ylpiperidin-1-yl)carbonyl]-1,2,3,6-tetrahydroazepino[4,5-b]indole-5-carboxylate] | > 10 µM | 5.00 to 6.00 | 80 to 100% |
| CC(C)OC(=O)C1=CN(C(=O)N2CCN(CC3CCN(C)CC3)CC2)CC(C)(C)c2c1[nH]c1ccccc21 [Example 29, 1-methylethyl 1,1-dimethyl-3-({4-[(1-methylpiperidin-4-yl)methyl]piperazin-1-yl}carbonyl)-1,2,3,6-tetrahydroazepino [4,5-b]indole-5-carboxylate] | > 10 µM | 5.00 to 6.00 | 40 to 60% |
| CC(C)OC(=O)C1=CN(C(=O)N2CCN(C(C)C)CC2)CC(C)(C)c2c1[nH]c1ccccc21 [Example 30, 1-methylethyl 1,1-dimethyl-3-{[4-(1-methylethyl)piperazin-1-yl)carbonyl}-1,2,3,6-tetrahydroazepino[4,5-b]indole-5-carboxylate] | > 10 µM | 6.00 to 7.00 | > 100% |
| CCCN1CCN(C(=O)N2C=C(C(=O)OC(C)C)c3[nH]c4ccccc4c3C(C)(C)C2)CC1 [Example 31] | 1 to 10 µM (≈ 0.453 to 4.53 µg/mL) | 6.00 to 7.00 | > 100% |
| CCN(CC)C1CCN(C(=O)N2C=C(C(=O)OC(C)C)c3[nH]c4ccccc4c3C(C)(C)C2)CC1 [Example 33, 1-methylethyl 3-{[4-0 (diethylamino)piperidin-1-yl]carbonyl}-1,1-dimethyl-1,2,3,6-tetrahydroazepino[4,5-b]indole-5-carboxylate] | > 10 µM | 5.00 to 6.00 | 60 to 80% |
| CC(C)CCC(=O)N1C=C(C(=O)OC(C)C)c2[nH]c3ccccc3c2C(C)(C)C1 [Example 34, 1-methylethyl 1,1-dimethyl-3-(4-methylpentanoyl)-1,2,3,6-tetrahydro azepino [4,5-b]indole-5-carboxylate] | > 10 µM | 7.00 to 8.00 | > 100% |
| CC(C)OC(=O)C1=CN(C(=O)N2CCN(C)CC2)CC(C)(C)c2c1[nH]c1cc(F)ccc21 [Example 35, 1-methylethyl 8-fluoro-1,1-dimethyl-3-[(4-methylpiperazin-1-yl)carbonyl]-1,2,3,6-tetrahydroazepino[4,5-b]indole-5-carboxylate] | > 10 µM | 7.00 to 8.00 | > 100% |
| CCN1CCN(C(=O)N2C=C(C(=O)OC(C)C)c3[nH]c4cc(F)ccc4c3C(C)(C)C2)CC1 [Example 36, 1-methylethyl 3-[(4-ethylpiperazin-1-yl)carbonyl]-8-fluoro-1,1-dimethyl-1,2,3,6-tetrahydroazepino[4,5-b]indole-5-carboxylate] | > 10 µM | 7.00 to 8.00 | > 100% |
| CC(C)OC(=O)C1=CN(C(=O)N2CCN(CC(=O)N3CCCC3)CC2)CC(C)(C)c2c1[nH]c1ccccc21 [Example 37, 1-methylethyl 1,1-dimethyl-3-{[4-(2-oxo-2-pyrrolidin-1-ylethyl)piperazin-1-yl]carbonyl}-1,2,3,6-tetrahydroazepino [4,5-b]indole-5-carboxylate] | > 10 µM | 6.00 to 7.00 | > 100% |
| CCN(CC)CCN1CCN(C(=O)N2C=C(C(=O)OC(C)C)c3[nH]c4ccccc4c3C(C)(C)C2)CC1 [Example 38, 1-methylethyl 3-({4-[2-(diethylamino)ethyl]piperazin-1-yl}carbonyl)-1,1-dimethyl-1,2,3,6-tetrahydroazepino[4,5-b]indole-5-carboxylate] | > 10 µM | 5.00 to 6.00 | 60 to 80% |
| CC(C)OC(=O)C1=CN(C(=O)N2CCCC(N(C)C)C2)CC(C)(C)c2c1[nH]c1ccccc21 (stereo not drawn) [Example 39, 1-methylethyl 3-{[3-(dimethylamino)piperidin-1-yl]carbonyl}-1,1-dimethyl-1,2,3,6-tetrahydroazepino[4,5-b]indole-5-carboxylate] | > 10 µM | 6.00 to 7.00 | > 100% |
| CC(C)OC(=O)C1=CN(C(=O)N2CCC(N3CCN(C)CC3)CC2)CC(C)(C)c2c1[nH]c1ccccc21 [Example 41, 1-methylethyl 1,1-dimethyl-3{[4-(4-methylpiperazin-1-yl)piperidin-1-yl]carbonyl}-1,2,3,6-tetrahydroazepino [4,5-b]indole-5-carboxylate] | > 10 µM | 5.00 to 6.00 | 40 to 60% |
| CC(C)OC(=O)C1=CN(C(=O)N2C[C@@H]3C[C@H]2CN3C)CC(C)(C)c2c1[nH]c1ccccc21 [Example 42, 1-methylethyl 1,1-dimethyl-3-{[(1S,4S)-5-methyl-2,5-diazabicyclo[2.2.1]hept-2-yl]carbonyl}-1,2,3,6-tetrahydroazepino [4,5-b]indole-5-carboxylate] | > 10 µM | 6.00 to 7.00 | > 100% |
| CC(C)OC(=O)C1=CN(C(=O)N2CCCN(C)CC2)CC(C)(C)c2c1[nH]c1ccccc21 [Example 43, 1-methyl 1,1-dimethyl-3-[(4-methyl-1,4-diazepan-1-yl)carbonyl]-1,2,3,6-tetrahydroazepino[4,5-b]indole-5-carboxylate] | > 10 µM | 6.00 to 7.00 | > 100% |
| CC(C)OC(=O)C1=CN(C(=O)NC2CCCCC2)CC(C)(C)c2c1[nH]c1ccccc21 [Example 45, 1-methylethyl 3-[(cyclohexylamino)carbonyl]-1,1-dimethyl-1,2,3,6-tetrahydroazepino[4,5-b]indole-5-carboxylate] | 1 to 10 µM (≈ 0.424 to 4.24 µg/mL) | 7.00 to 8.00 | > 100% |
| CC(C)OC(=O)C1=CN(C(=O)N2CCOCC2)CC(C)(C)c2c1[nH]c1ccccc21 [Example 47, 1-methylethyl 1,1-dimethyl-3-(morpholin-4-ylcarbonyl)-1,2,3,6-tetrahydrazepino[4,5-b]indole-5-carboxylate] | > 10 µM | 7.00 to 8.00 | > 100% |
| CC(C)OC(=O)C1=CN(C(=O)N2CCCC(CN(C)C)C2)CC(C)(C)c2c1[nH]c1ccccc21 (stereo not drawn) [Example 48, 1-methylethyl 3-({3-[(dimethylamino)methyl]piperidin-1-yl}carbonyl)-1,1-dimethyl-1,2,3,6-tetrahydroazepino[4,5-b]indole-5-carboxylate] | > 10 µM | 5.00 to 6.00 | > 100% |
| CC(C)OC(=O)C1=CN(C(=O)N2CCC[C@@H](CN(C)C)C2)CC(C)(C)c2c1[nH]c1ccccc21 [Example 50, 1-methylethyl 3-({(3S)-3-[(dimethylamino)methyl]piperidin-1-yl}carbonyl)-1,1-dimethyl-1,2,3,6-tetrahydroazepino[4,5-b]indole-5-carboxylate] | > 10 µM | 5.00 to 6.00 | 60 to 80% |
| CC(C)OC(=O)C1=CN(C(=O)N2CCC[C@H](CN(C)C)C2)CC(C)(C)c2c1[nH]c1ccccc21 [Example 51, 1-methylethyl 3-({(3R)-3-[(dimethylamino)methyl]piperidin-1-yl}carbonyl)-1,1-dimethyl-1,2,3,6-tetrahydroazepino[4,5-b]indole-5-carboxylate] | > 10 µM | 5.00 to 6.00 | > 100% |
